According to patent publication US20210322785A1, “COMPOSITIONS AND METHODS FOR TREATING WOUNDS” (C.P. MEDICAL CORPORATION, priority 2018, published 2021):

Legend:
[1] = Drug elution from polymer into PBS at 37° C.; type: physicochemical; settings: within the first three days; polymer prepared with Nolvasan, 2% chlorhexidine dose (50 mg); PBS 37° C.
Method: A Thermo Scientific GENESYS 10S UV-Vis spectrophotometer was used to quantify the release of various drugs from several polymers. First, the reference drug or drug solution was dissolved in an appropriate solvent. Typically, phosphate buffered saline (PBS), ethanol or dimethylsulfoxide (DMSO) were used as the solvent. Next, the optimal absorption peak for identifying and quantifying the drug was determined by performing a scan of the drug solution between 200 and 1000 nm. With the absorption peak selected, a reference curve was established by measuring the peak absorbance for various concentrations of the drug. […]
Elution samples were collected daily by decanting the PBS solution from the polymer. The volume of sample collected was recorded. […] The elution sample was analyzed by first diluting the sample in the appropriate solvent using analytical pipettes such that the measured absorbance was in the range determined by the reference curve. The dilution factor was recorded. The drug concentration was calculated from the measured absorbance via the reference curve and the dilution factor. The drug amount was calculated by multiplying the drug concentration with the sample volume. The percent elution for that day was calculated by dividing the drug amount by the total amount of drug administered. […]

[2] = Hydrogel surface spread test; type: physicochemical; parameters: key: 1: no spreading, tight drops that stay in place; 2: mild spreading, drops drip slowly down; 3: severe spreading, drops completely wet surface; settings: drop from 22 gauge needle on 97.5% water hydrogel surface, incline about 30°
Method: To model the performance of the polymer solutions on a hydrophilic surface the extent of spreading and dripping of droplets on a high water content biocompatible hydrogel polymer matrix surface at an incline of about 30° was recorded. […] The solution was stirred with a spatula for 10 to 20 seconds and allowed to gel, which typically took 5 to 10 minutes. The water content of the resulting polymer was 97.5%.
The test was performed by first preparing the polymer solution in the usual fashion. After thorough mixing, the polymer solution was dispensed dropwise through a 22 gauge needle onto the biocompatible biocompatible hydrogel polymer matrix surface. The results are shown in Table 9B and were divided into three general categories: 1) no spreading, tight drops that stay in place; 2) mild spreading, drops drip slowly down; 3) severe spreading, drops completely wet surface. Water is in category 3.

chlorhexidine released from polymer [1]	hydrogel surface spread test category [2]	Compound
Almost half	–	[H]/N=C(\N/C(=N/[H])NCCCCCCNC(=N)NC(=N)Nc1ccc(Cl)cc1)Nc1ccc(Cl)cc1 [chlorhexidine]
–	3	Water
